Results: patent US20210196720A1 (UROVANT SCIENCES GMBH, priority 2018, published 2021)
Where “and” joins values, the source holds several entries; their conditions need not be identical. Equal values may be shown once. Read-outs that look alike come from different tables or passages of the source.

What was measured:
[1] = target: CYP2D6 (Homo sapiens, UniProt P10635); conditions: Rutman et al. 2019; cited from earlier work
[2] = Dose-Cmax and dose-AUC models / simulations for 75 mg; design: species or system human
Method: In order to contextualize PK parameters of a 75 mg dose, dose-Cmax and dose-AUC models were created using data from Phase 1 studies.

[3] = target: β2-AR (Homo sapiens, UniProt P07550); test: Competition binding assay, recombinant β2-AR
β2-AR, sequence (P07550 whole entry): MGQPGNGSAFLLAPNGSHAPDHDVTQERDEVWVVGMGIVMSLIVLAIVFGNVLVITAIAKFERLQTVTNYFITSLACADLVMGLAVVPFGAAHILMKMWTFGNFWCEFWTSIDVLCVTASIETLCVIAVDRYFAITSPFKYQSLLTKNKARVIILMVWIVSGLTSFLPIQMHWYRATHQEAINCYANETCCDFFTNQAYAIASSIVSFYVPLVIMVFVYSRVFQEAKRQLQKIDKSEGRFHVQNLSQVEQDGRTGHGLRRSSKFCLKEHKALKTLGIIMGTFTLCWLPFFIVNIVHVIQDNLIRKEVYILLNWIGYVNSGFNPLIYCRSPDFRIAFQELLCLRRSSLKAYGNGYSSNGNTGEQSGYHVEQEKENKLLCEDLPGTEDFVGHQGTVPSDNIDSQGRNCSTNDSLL

[4] = Capsule vs tablet single-dose crossover PK, 150 mg, healthy males; type: in vivo; conditions: male, human, plasma, oral
From the text: Tmax and the apparent terminal t1/2 were also similar between the two formulations.

[5] = Single rising oral dose Phase 1 PK, healthy adults (young males unless stated); type: in vivo, human; conditions: for AUC(0-inf) / Cmax / AUC(0-t) / half-life: human, plasma, oral; for AUC(0-t): read-out: AUC0-24
Method: The steady state AUC geometric mean accumulation ratios were ˜2 in young male subjects and ˜2.8 in elderly subjects (male and female).
All subjects were healthy adults. […] Systemic exposures were greater than dose proportional up to 600 mg.
Although exposures were similar in middle-aged males when compared to young males, plasma concentrations were higher in elderly compared to middle-aged and young subjects. […] Furthermore, the steady state AUC geometric mean accumulation ratios were ˜2 in young males and ˜2.8 in the elderly.

[6] = Phase 2b OAB study, adverse events
From the text: A placebo group was included in the main study, and a group that received tolterodine monotherapy was included in the main study and in the extension.

[7] = Drug interaction: effect of conmed on vibegron PK; type: in vivo, human; conditions: for half-life / AUC / Cmax: human, oral; for half-life: read-out: GM t1/2 (converted); for AUC / Cmax: plasma
From the text: However, these interactions are not expected to be clinically significant.

[8] = Moderate hepatic impairment PK, single 100 mg; type: in vivo, human; conditions: for half-life: read-out: Apparent terminal t1/2 (converted)
[9] = 75 mg, log-log regression of multiple-dose exposures
[10] = both sexes, 50 mg, single 50 mg, elderly male and female
[11] = male, 10 mg, single 10 mg, Japanese
[12] = male, 50 mg, single 50 mg, Japanese, fasted
[13] = male, 50 mg, single 50 mg, fasted
[14] = male, 100 mg, single 100 mg, Japanese
[15] = male, 200 mg, single 200 mg, Japanese
[16] = male, 300 mg, single 300 mg, Japanese
[17] = 100 mg QD + tolterodine ER 4 mg QD
[18] = 100 mg single + diltiazem ER 240 mg QD
[19] = 100 mg single + ketoconazole 200 mg every 12 hours
[20] = 100 mg, 100 mg QD alone (tolterodine study)
[21] = 100 mg, 100 mg single, alone (diltiazem study)
[22] = 100 mg, 100 mg single, alone (ketoconazole study)
[23] = 150 mg QD + tolterodine ER 4 mg QD
[24] = 150 mg, 150 mg QD alone (tolterodine study)
[25] = with multiple doses of diltiazem
[26] = human, plasma, oral, 100 mg, healthy matched controls
[27] = human, plasma, oral, 100 mg, moderate hepatic impairment

CYP2D6, sequence (P10635 whole entry): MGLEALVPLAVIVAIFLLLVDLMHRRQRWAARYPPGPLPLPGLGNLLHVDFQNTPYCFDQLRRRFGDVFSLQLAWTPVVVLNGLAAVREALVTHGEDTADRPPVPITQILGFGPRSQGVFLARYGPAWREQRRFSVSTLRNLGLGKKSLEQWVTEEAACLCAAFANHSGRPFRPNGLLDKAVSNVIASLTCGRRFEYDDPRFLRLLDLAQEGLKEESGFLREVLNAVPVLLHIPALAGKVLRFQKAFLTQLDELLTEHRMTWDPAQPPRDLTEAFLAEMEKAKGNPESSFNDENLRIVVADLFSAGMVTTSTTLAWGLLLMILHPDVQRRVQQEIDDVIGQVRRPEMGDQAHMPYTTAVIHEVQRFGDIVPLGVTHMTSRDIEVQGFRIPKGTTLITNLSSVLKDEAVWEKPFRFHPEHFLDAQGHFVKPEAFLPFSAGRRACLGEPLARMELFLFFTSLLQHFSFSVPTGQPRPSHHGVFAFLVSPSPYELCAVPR

Structure (SMILES): O=C(Nc1ccc(C[C@@H]2CC[C@H]([C@H](O)c3ccccc3)N2)cc1)[C@@H]1CCc2nccc(=O)n21 [Vibegron, (6S)-N-[4-[[(2S,5R)-5-[(R)-hydroxy(phenyl)methyl]pyrrolidin-2-yl]methyl]phenyl]-4-oxo-7,8-dihydro-6H-pyrrolo[1,2-a]pyrimidine-6-carboxamide]
- CYP2D6 inhibition [1]: does not inhibit CYP2D6
- AUC of 75 mg lower than 200 mg single dose [2]: ~2 fold
- AUC of 75 mg lower than 400 mg single dose [2]: ~6 fold
- Cmax of 75 mg lower than 200 mg single dose [2]: approximately 3.3 fold
- Cmax of 75 mg lower than 400 mg single dose [2]: ~9.2 fold
- reduction in Cmax ([2]; 75 mg vs 100 mg): ~40%
- calculated AUC (mean±SD) [2, 9]: 1140 ± 476 ng·h/mL
- calculated Cmax (mean±SD) [2, 9]: 120 ± 74.7 ng/mL and 120 ng/mL
- Cmax ([2]; 100 mg): 206 ng/mL
- increase in Cmax ([2]; dose increase from 50 to 100 mg): ~3 fold
- binding to β2-AR [3]: does not bind
- AUC(0-inf) ([4]; 1 × 150 mg capsule): 2840 ng·h/mL
- Cmax ([4]; 1 × 150 mg capsule): 237 ng/mL
- AUC(0-inf) ([4]; 3 × 50 mg tablets): 2660 ng·h/mL
- Cmax ([4]; 3 × 50 mg tablets): 213 ng/mL
- AUC(0-inf) [5, 10]: 951 ± 300 ng·h/mL
- Cmax [5, 10]: 50.2 ± 23.6 ng/mL
- AUC(0-t) [5, 10]: 314 ± 119 ng·h/mL
- half-life ([5]; both sexes, 50 mg, single 50 mg, elderly male and female, read-out: t1/2 (converted)): 92 h
- Cmax ([5]; male, 2 mg, single 2 mg): 0.28 ± 0.02 ng/mL
- AUC(0-t) ([5]; male, 2 mg, single 2 mg): 0.8 ± 0.33 ng·h/mL
- Cmax ([5]; male, 5 mg, single 5 mg): 0.79 ± 0.3 ng/mL
- AUC(0-t) ([5]; male, 5 mg, single 5 mg): 8.31 ± 4.8 ng·h/mL
- AUC(0-inf) ([5]; male, 10 mg, single 10 mg): 70.7 ± 34.9 ng·h/mL
- Cmax ([5]; male, 10 mg, single 10 mg): 4.76 ± 4.58 ng/mL
- AUC(0-inf) [5, 11]: 98.7 ± 27.3 ng·h/mL
- Cmax [5, 11]: 3.34 ± 1.97 ng/mL
- AUC(0-t) [5, 11]: 31 ± 9.33 ng·h/mL
- half-life ([5]; male, 10 mg, single 10 mg, Japanese, read-out: t1/2 (converted)): 57.6 ± 39 h
- AUC(0-t) ([5]; male, 10 mg, single 10 mg): 30 ± 12.6 ng·h/mL
- half-life ([5]; male, 10 mg, single 10 mg, read-out: t1/2 (converted)): 43.2 ± 13 h
- AUC(0-inf) ([5]; male, 20 mg, single 20 mg): 121 ± 48.9 ng·h/mL
- Cmax ([5]; male, 20 mg, single 20 mg): 5.25 ± 4.25 ng/mL
- AUC(0-t) ([5]; male, 20 mg, single 20 mg): 40 ± 21.1 ng·h/mL
- half-life ([5]; male, 20 mg, single 20 mg, read-out: t1/2 (converted)): 64.2 ± 12.6 h
- AUC(0-inf) [5, 12]: 885 ± 241 ng·h/mL
- Cmax [5, 12]: 62.2 ± 20.4 ng/mL
- AUC(0-t) [5, 12]: 385 ± 136 ng·h/mL
- half-life ([5]; male, 50 mg, single 50 mg, Japanese, read-out: t1/2 (converted)): 64.4 ± 8.7 h
- AUC(0-inf) [5, 13]: 551 ± 262 ng·h/mL
- Cmax [5, 13]: 31.7 ± 35 ng/mL
- AUC(0-t) [5, 13]: 219 ± 123 ng·h/mL
- half-life ([5]; male, 50 mg, single 50 mg, read-out: t1/2 (converted)): 52 h
- AUC(0-inf) ([5]; male, 100 mg, single 100 mg): 1890 ± 698 ng·h/mL
- Cmax ([5]; male, 100 mg, single 100 mg): 142 ± 108 ng/mL
- AUC(0-inf) [5, 14]: 1770 ± 418 ng·h/mL
- Cmax [5, 14]: 190 ± 123 ng/mL
- AUC(0-t) [5, 14]: 920 ± 300 ng·h/mL
- half-life ([5]; male, 100 mg, single 100 mg, Japanese, read-out: t1/2 (converted)): 57.6 ± 12 h
- AUC(0-t) ([5]; male, 100 mg, single 100 mg): 845 ± 401 ng·h/mL
- half-life ([5]; male, 100 mg, single 100 mg, read-out: t1/2 (converted)): 72.8 ± 10.8 h
- AUC(0-inf) ([5]; male, 150 mg, single 150 mg): 2270 ± 911 ng·h/mL
- Cmax ([5]; male, 150 mg, single 150 mg): 195 ± 185 ng/mL
- AUC(0-t) ([5]; male, 150 mg, single 150 mg): 1050 ± 551 ng·h/mL
- half-life ([5]; male, 150 mg, single 150 mg, read-out: t1/2 (converted)): 60.5 ± 10.5 h
- AUC(0-inf) ([5]; male, 200 mg, single 200 mg): 3630 ± 1110 ng·h/mL
- Cmax ([5]; male, 200 mg, single 200 mg): 274 ± 138 ng/mL
- AUC(0-inf) [5, 15]: 5200 ± 791 ng·h/mL
- Cmax [5, 15]: 516 ± 200 ng/mL
- AUC(0-t) [5, 15]: 3090 ± 569 ng·h/mL
- half-life ([5]; male, 200 mg, single 200 mg, Japanese, read-out: t1/2 (converted)): 58.4 ± 9 h
- AUC(0-t) ([5]; male, 200 mg, single 200 mg): 1740 ± 748 ng·h/mL
- half-life ([5]; male, 200 mg, single 200 mg, read-out: t1/2 (converted)): 75.3 ± 9.1 h
- AUC(0-inf) ([5]; male, 300 mg, single 300 mg): 7380 ± 1410 ng·h/mL
- Cmax ([5]; male, 300 mg, single 300 mg): 618 ± 231 ng/mL
- AUC(0-inf) [5, 16]: 6270 ± 1570 ng·h/mL
- Cmax [5, 16]: 733 ± 210 ng/mL
- AUC(0-t) [5, 16]: 4050 ± 1240 ng·h/mL
- half-life ([5]; male, 300 mg, single 300 mg, Japanese, read-out: t1/2 (converted)): 59.7 ± 9.2 h
- AUC(0-t) ([5]; male, 300 mg, single 300 mg): 4430 ± 996 ng·h/mL
- half-life ([5]; male, 300 mg, single 300 mg, read-out: t1/2 (converted)): 63.4 ± 3 h
- AUC(0-inf) ([5]; male, 450 mg, single 450 mg): 9160 ± 1850 ng·h/mL
- Cmax ([5]; male, 450 mg, single 450 mg): 645 ± 165 ng/mL
- AUC(0-t) ([5]; male, 450 mg, single 450 mg): 5510 ± 1440 ng·h/mL
- half-life ([5]; male, 450 mg, single 450 mg, read-out: t1/2 (converted)): 60 ± 9.4 h
- AUC(0-inf) ([5]; male, 600 mg, single 600 mg): 15500 ± 3450 ng·h/mL
- Cmax ([5]; male, 600 mg, single 600 mg): 1330 ± 529 ng/mL
- AUC(0-t) ([5]; male, 600 mg, single 600 mg): 10900 ± 2770 ng·h/mL
- half-life ([5]; male, 600 mg, single 600 mg, read-out: t1/2 (converted)): 60.5 ± 5.2 h
- half-life ([5]; male, 10 to 600 mg, healthy young males, read-out: terminal elimination t1/2): 43 to 75 h
- half-life ([5]; male, Japanese subjects, read-out: harmonic mean apparent terminal t1/2): 58 to 71 h
- AUC0-inf higher in elderly than young males ([5]; single 50 mg): ~70%
- Cmax higher in elderly than young males ([5]; single 50 mg): 60%
- t1/2 ([5]; single 50 mg): 52 h and 52.0 ± 7.8 h
- t1/2 ([5]; single 50 mg, elderly male and female): 92 h and 92.1 ± 15.9 h
- exposure increase, Japanese vs non-Japanese young males ([5]; single dose): < 2 fold
- tolerability ([6]; Phase 2b, 3 to 100 mg): generally well tolerated
- ≥1 AE, subjects ([6]; first 12 weeks, dose group by column): 107 n
- frequency of injuries ([6]; in vivo): 0.9%
- half-life ([7]; in vivo, 100 mg, vibegron alone): 75 h
- half-life ([7]; in vivo, with diltiazem): 75.4 h
- half-life ([7]; in vivo, with ketoconazole): 80.2 h
- AUC [7, 17]: 1790 ng·h/mL
- Cmax [7, 17]: 163 ng/mL
- AUC [7, 18]: 2170 ng·h/mL
- Cmax [7, 18]: 167 ng/mL
- AUC [7, 19]: 2850 ng·h/mL
- Cmax [7, 19]: 251 ng/mL
- AUC [7, 20]: 1660 ng·h/mL
- Cmax [7, 20]: 158 ng/mL
- AUC [7, 21]: 1330 ng·h/mL
- Cmax [7, 21]: 99.8 ng/mL
- AUC [7, 22]: 1370 ng·h/mL
- Cmax [7, 22]: 113 ng/mL
- AUC [7, 23]: 3100 ng·h/mL
- Cmax [7, 23]: 304 ng/mL
- AUC [7, 24]: 2780 ng·h/mL
- Cmax [7, 24]: 269 ng/mL
- effect of tolterodine ER 4 mg on pharmacokinetics of vibegron ([7]; in vivo): no effect
- higher exposure ([7]; with a potent CYP3A/P-gp inhibitor): ~2 fold
- GM AUC0-inf increase [7, 25]: 63%
- GM Cmax increase [7, 25]: 68%
- CL/F ([8]; healthy matched controls): 68.3 L/h
- AUC(0-inf) [8, 26]: 1440 ng·h/mL
- Cmax [8, 26]: 125 ng/mL
- half-life [8, 26]: 92.5 h
- AUC(0-inf) [8, 27]: 1820 ng·h/mL
- Cmax [8, 27]: 168 ng/mL
- Tmax [8, 27]: 1 h
- half-life [8, 27]: 94.5 h
- CL/F ([8]; moderate hepatic impairment): 56.0 L/h
